Source: the SangsterLogP compilation

Row | SMILES | logP
1 | CCOC(=O)CCCCCCCCCCCN(C)C(=O)CO[C@@H](C)[C@H](C)OCC(=O)N(C)CCCCCCCCCCCC(=O)OCC | 6.2
2 | O=C1COCC(=O)N(Cc2ccccc2)CCN(Cc2ccccc2)C(=O)COCC(=O)N(Cc2ccccc2)CCOCCN1Cc1ccccc1 | 3.8
3 | O=C1COCC(=O)N(Cc2ccccc2)CCOCCN(Cc2ccccc2)C(=O)COCC(=O)N(Cc2ccccc2)CCOCCN1Cc1ccccc1 | 3.8
4 | O=C1COCC(=O)N(Cc2ccccc2)CCN(c2ccccc2)CCN(Cc2ccccc2)C(=O)COCC(=O)NCCN1 | 2.2
5 | O=C1COCC(=O)N(Cc2ccccc2)CCN(c2ccc(F)cc2)CCN(Cc2ccccc2)C(=O)COCC(=O)N(Cc2ccccc2)CCN1Cc1ccccc1 | 5.2
6 | O=C1COCC(=O)N(Cc2ccccc2)CCN(Cc2ccccc2)C(=O)COCC(=O)NCCN1 | 1.9
7 | O=C1COCCOCC(=O)N(Cc2ccccc2)CCN(Cc2ccccc2)C(=O)COCCOCC(=O)N(Cc2ccccc2)CCN1Cc1ccccc1 | 3.8
8 | O=C(COCC(=O)N(C1CCCCC1)C1CCCCC1)N(C1CCCCC1)C1CCCCC1 | 6.7
9 | O=C1COCC(=O)N(Cc2ccccc2)CCN(c2ccccc2)CCN(Cc2ccccc2)C(=O)COCC(=O)N(Cc2ccccc2)CCN1Cc1ccccc1 | 5.2
10 | O=C1CCCCCCC(=O)N(Cc2ccccc2)CCN(Cc2ccccc2)C(=O)CCCCCCC(=O)N(Cc2ccccc2)CCN1Cc1ccccc1 | 5.1
11 | O=C1COCC(=O)N(Cc2ccccc2)CCN(Cc2ccccc2)C(=O)COCC(=O)N(Cc2ccccc2)CCN1Cc1ccccc1 | 3.8
12 | CCN(Cc1ccccc1)C(=O)COCC(=O)N(CC)Cc1ccccc1 | 2.5
